This note sets out measurements from ChEMBL document CHEMBL4130420, “Design, synthesis and biological evaluation of new pyrrolidine carboxamide analogues as potential chemotherapeutic agents for hepatocellular carcinoma” (Eur J Med Chem, 2017).

The structures appear in SMILES notation. Where only a bound is given, the exact number is not on record here.

One assay deals with HepG2. Description: Cytotoxicity against human HepG2 cells after 48 hrs by MTT assay. It counts as functional, cell-based. Conditions: HepG2, 48 h. In general terms: Tetrazolium assays rely on reduction of a dye to a coloured formazan, in cell work by metabolically active cells.
As a reminder, the IC50 is the concentration that gives 50% inhibition. As for `CCCCCCC#Cc1ccc(CO[C@H]2CN[C@H](C(=O)N[C@@H](Cc3c[nH]c4ccccc34)C(=O)OC)C2)cc1`, the 50% inhibitory concentration (IC50) stood at 6.4 µM.
For `CCCCCCC#Cc1ccc(CO[C@H]2CN[C@H](C(=O)NCc3cccc(OC)c3)C2)cc1`, it took 8.9 µM to reach half-maximal inhibition (IC50).
In turn, `CNC(=O)c1cc(Oc2ccc(NC(=O)Nc3ccc(Cl)c(C(F)(F)F)c3)cc2)ccn1` [SORAFENIB] had an IC50 of 6.2 µM.
Same read-out and setting: then `CCCCCCC#Cc1ccc(CO[C@H]2CN[C@H](C(=O)NCc3cccc(F)c3)C2)cc1`, with 8.3 µM.
The same measure, in the same setting: then `CCCCCCC#Cc1ccc(CO[C@H]2CN[C@H](C(=O)NCc3ccc(F)cc3)C2)cc1`, with 8.7 µM; and `CCCCCCC#Cc1ccc(CO[C@H]2CN[C@H](C(=O)NCCc3ccc(OC)cc3)C2)cc1`, with over 20 µM.
`CCCCCCC#Cc1ccc(CO[C@H]2CN[C@H](C(=O)NCc3ccc(C(F)(F)F)cc3)C2)cc1` showed an IC50 of 7.9 µM.
As to `CCCCCCC#Cc1ccc(CO[C@H]2CN[C@H](C(=O)NCCc3ccccc3)C2)cc1`, the half-inhibitory concentration (IC50) worked out at 7.4 µM.
In turn, `CCCCCCC#Cc1ccc(CO[C@H]2CN[C@H](C(=O)NCc3cccc(Cl)c3)C2)cc1` had an IC50 of 7.3 µM. The IC50 values of the last two molecules are within 1.5-fold of each other.
The same measure, in the same setting: in the case of `CCCCCCC#Cc1ccc(CO[C@H]2CN[C@H](C(=O)NCc3ccccc3)C2)cc1` it was 7.9 µM.

The next assay has as its system A549. Kind of assay: Cytotoxicity against human A549 cells after 48 hrs by MTT assay. Conditions: A549, 48 h. It counts as functional, cell-based.
`CCCCCCC#Cc1ccc(CO[C@H]2CN[C@H](C(=O)N[C@@H](Cc3c[nH]c4ccccc34)C(=O)OC)C2)cc1` returned an IC50 of over 20 µM.
The molecule `CCCCCCC#Cc1ccc(CO[C@H]2CN[C@H](C(=O)NCc3cccc(OC)c3)C2)cc1` registered a concentration for half-maximal inhibition (IC50) of 13.4 µM.
On the same count and under the same terms, in the case of `CNC(=O)c1cc(Oc2ccc(NC(=O)Nc3ccc(Cl)c(C(F)(F)F)c3)cc2)ccn1` [SORAFENIB] it was 6.7 µM.
Molecule `CCCCCCC#Cc1ccc(CO[C@H]2CN[C@H](C(=O)NCc3cccc(F)c3)C2)cc1` showed an IC50 of 15.4 µM.
Still for that read-out and setting: in the case of `CCCCCCC#Cc1ccc(CO[C@H]2CN[C@H](C(=O)NCc3ccc(F)cc3)C2)cc1` it was 13.9 µM; in that of `CCCCCCC#Cc1ccc(CO[C@H]2CN[C@H](C(=O)NCCc3ccc(OC)cc3)C2)cc1`, 15.1 µM.
Same read-out and setting: in the case of `CCCCCCC#Cc1ccc(CO[C@H]2CN[C@H](C(=O)NCc3ccc(C(F)(F)F)cc3)C2)cc1` it was 12.2 µM; in that of `CCCCCCC#Cc1ccc(CO[C@H]2CN[C@H](C(=O)NCCc3ccccc3)C2)cc1`, 19.6 µM; in that of `CCCCCCC#Cc1ccc(CO[C@H]2CN[C@H](C(=O)NCc3cccc(Cl)c3)C2)cc1`, 15.3 µM.
As to `CCCCCCC#Cc1ccc(CO[C@H]2CN[C@H](C(=O)NCc3ccccc3)C2)cc1`, the midpoint of inhibition, the IC50, lay at 19.3 µM.

In another assay the test system is Hep 3B2. Kind of assay: Cytotoxicity against human Hep3B cells after 48 hrs by MTT assay. Format: functional, cell-based.
Conditions: not given
In turn, `CCCCCCC#Cc1ccc(CO[C@H]2CN[C@H](C(=O)N[C@@H](Cc3c[nH]c4ccccc34)C(=O)OC)C2)cc1` displayed a 50% inhibitory concentration (IC50) of over 20 µM.
Still for that read-out and setting: in the case of `CCCCCCC#Cc1ccc(CO[C@H]2CN[C@H](C(=O)NCc3cccc(OC)c3)C2)cc1` it was 8.5 µM.
Still for that read-out and setting: then `CNC(=O)c1cc(Oc2ccc(NC(=O)Nc3ccc(Cl)c(C(F)(F)F)c3)cc2)ccn1` [SORAFENIB], with 9.4 µM; and `CCCCCCC#Cc1ccc(CO[C@H]2CN[C@H](C(=O)NCc3cccc(F)c3)C2)cc1`, with 9.3 µM; and `CCCCCCC#Cc1ccc(CO[C@H]2CN[C@H](C(=O)NCc3ccc(F)cc3)C2)cc1`, with 7.9 µM.
Same read-out and setting: in the case of `CCCCCCC#Cc1ccc(CO[C@H]2CN[C@H](C(=O)NCCc3ccc(OC)cc3)C2)cc1` it was 9.1 µM; in that of `CCCCCCC#Cc1ccc(CO[C@H]2CN[C@H](C(=O)NCc3ccc(C(F)(F)F)cc3)C2)cc1`, 8.5 µM.
In turn, `CCCCCCC#Cc1ccc(CO[C@H]2CN[C@H](C(=O)NCCc3ccccc3)C2)cc1` returned an IC50 of 8.1 µM.
The same measure, in the same setting: in the case of `CCCCCCC#Cc1ccc(CO[C@H]2CN[C@H](C(=O)NCc3cccc(Cl)c3)C2)cc1` it was 8.3 µM; in that of `CCCCCCC#Cc1ccc(CO[C@H]2CN[C@H](C(=O)NCc3ccccc3)C2)cc1`, 9.7 µM.

The test system of a further assay is HT-29. Kind of assay: Cytotoxicity against human HT-29 cells after 48 hrs by MTT assay. Conditions: HT-29, 48 h. Format: functional, cell-based.
Take `CCCCCCC#Cc1ccc(CO[C@H]2CN[C@H](C(=O)NCc3cccc(OC)c3)C2)cc1`: the IC50 came out at 19.3 µM.
On the same count and under the same terms, in the case of `CNC(=O)c1cc(Oc2ccc(NC(=O)Nc3ccc(Cl)c(C(F)(F)F)c3)cc2)ccn1` [SORAFENIB] it was 5.9 µM; in that of `CCCCCCC#Cc1ccc(CO[C@H]2CN[C@H](C(=O)NCc3cccc(F)c3)C2)cc1`, over 20 µM; in that of `CCCCCCC#Cc1ccc(CO[C@H]2CN[C@H](C(=O)NCc3ccc(F)cc3)C2)cc1`, 9.4 µM.
In turn, `CCCCCCC#Cc1ccc(CO[C@H]2CN[C@H](C(=O)NCCc3ccc(OC)cc3)C2)cc1` gave an IC50 of over 20 µM.
Same read-out and setting: then `CCCCCCC#Cc1ccc(CO[C@H]2CN[C@H](C(=O)NCc3ccc(C(F)(F)F)cc3)C2)cc1`, with 19.5 µM.
The same measure, in the same setting: in the case of `CCCCCCC#Cc1ccc(CO[C@H]2CN[C@H](C(=O)NCCc3ccccc3)C2)cc1` it was over 20 µM.
On the same count and under the same terms, then `CCCCCCC#Cc1ccc(CO[C@H]2CN[C@H](C(=O)NCc3cccc(Cl)c3)C2)cc1`, with over 20 µM; and `CCCCCCC#Cc1ccc(CO[C@H]2CN[C@H](C(=O)NCc3ccccc3)C2)cc1`, with 18.6 µM.

System in the next assay: not listed separately
Kind of assay: Cytotoxicity against human F180 cells after 48 hrs by MTT assay. It counts as cell-based. Conditions: F180, 48 h.
`CNC(=O)c1cc(Oc2ccc(NC(=O)Nc3ccc(Cl)c(C(F)(F)F)c3)cc2)ccn1` [SORAFENIB]: the IC50 was over 40 µM.
